Results as given in patent publication US7176216B2, “7-phenylpyrazolopyridine compounds” (Eisai Co., Ltd., priority 2002, dated 2007).
Where two headings read alike, the source gives them in different places.

Assays:
[1] = system: CRF-induced cAMP production in AtT-20 cells; experiment: cAMP production inhibition experiment using AtT-20 cells; type: cell-based; conditions: Mus musculus, AtT20, CRF 30 nM
Experimental: <cAMP Production Inhibition Experiment Using AtT-20 Cells>
AtT-20 cell is a cell-line derived from mouse pituitary gland tumor, which is known to respond to corticotropin releasing hormone (CRF), to produce cAMP by activation of the intracellular adenylate cyclase system, and to release adrenocorticotropic hormone (ACTH) (Biochem. Biophys. Res. Com., 106, 1364–1371, 1982). In this experiment, AtT-20 cells (1×10^5) were suspended in D-MEM (0.1% FBS) and seeded in a 96-well plate, and then 1 mM (final concentration) phosphodiesterase inhibitor (IBMX, Calbiochem) was added prior to incubation for 30 minutes at 37° C. The diluted test compound solution was then added prior to incubation for 30 minutes at 37° C., and CRF (final concentration: 30 nM) was added prior to further incubation for 30 minutes at 37° C. The cells were collected by centrifugation (1,800 rpm (630×g), 5 minutes), and then lysed with lysis buffer (0.2% dodecyltrimethylammmonium bromide), and the intracellular cAMP production was assayed by HTRF method. cAMP kit HTRF (Nihon Schering) was used for the cAMP assay.
(2) Calculation of cAMP Production Inhibitory Activity;
The cAMP production of each sample was represented as a percentage (% of control), with the CRF (final concentration: 30 nM)-added cells defined as 100% (control).

CYP3A4 = conditions: human, hepatocytes, 48 h
Experimental: Evaluation of Drug Metabolizing Enzyme (CYP3A4) Inducibility Using Cryopreserved Human Hepatocyte
Cryopreserved hepatocytes (In Vitro Technology) were rapidly thawed while stirring at 37° C., and then ice-cooled William's Medium E (10% FBS, +PSG) was slowly added to the cells prior to centrifugation at 500 rpm for 5 minutes. After removing the supernatant, the obtained hepatocytes were diluted with ice-cooled William's Medium E to a concentration of 5×10^5 cells/mL, seeded on a 48-well collagen coated plate (BD Biosciences) at 1×10^5 cells/cm^2 and incubated for about 24 hours at 37° C., 5% CO2, after which the medium was changed with Hepato-STIM™ (BD Biosciences) (+EGF, PSG, −FBS) and culture was maintained for another 24 hours under conditions of 37° C., 5% CO2. At approximately 48 hours after the cell seeding, the test compound or rifampicin (SIGMA, positive control) in the form of a diluted solution (using Hepato-STIM™ (+EGF, PSG, −FBS)) was added, hepatocyte were incubated for about 24 hours under conditions of 37° C., 5% CO2, and the culture medium was changed with medium containing a freshly prepared dilution of the test compound or rifampicin prior to further incubation for 24 hours under the same conditions. After incubation, the cells were washed once with PBS, and the total RNA was extracted using a Qiagen RNeasy Mini kit (Qiagen). The cDNA was synthesized by reverse-transcription of extracted using TaqMan Reverse Transcription Reagents (Applied Biosystems). The reverse transcription reaction was carried out using oligo dT as primer, with treatment at 25° C. for 10 minutes followed by treatment at 48° C. for 60 minutes, after which the reverse transcriptase was inactivated by treatment at 95° C. for 10 minutes. The obtained cDNA was supplied to a PCR using a Gene Amp PCR system 9700. The obtained cDNA was quantitated using an SYBR Green PCR Core Reagents kit (Applied Biosystems), and the human CYP3A4 and GAPDH mRNA was quantitated using an ABI7700 (Applied Biosystems). The abbreviations used in the test example are explained below. • FBS: Fetal Bovine Serum • PSG: Penicillin (100 U/ml), Streptomycin (100 μg/ml), Glutamine (2 mM) • EGF: Epidermal Growth Factor • GAPDH: Glyceraldehyde-3-Phosphate Dehydrogenase
(2) Calculation of CYP3A4 Inducibility:
Next, for comparison of each test run, the differences between the value of the CYP3A4 mRNA amount divided by the GAPDH mRNA amount with addition of the test compound at various concentrations and with addition of the negative control were calculated as percentages, with 100% being defined as the difference between the values of the CYP3A4 mRNA amount divided by the GAPDH mRNA amount for the positive control and negative control, to determine the inducibility of each test compound.

human CRFR1 = target: T1, human CRFR1 (Homo sapiens, UniProt P34998); experiment: CRFR binding experiment (125I-CRF, SPA, membrane fraction of CRFR1-expressing HEK293 cells); conditions: 100 pM 125I-CRF, read-out: CRF1 receptor binding affinity IC50
T1 construct: The full-length CRFR1 gene was obtained by PCR using human brain cDNA library; expressed in transfected cells
T1 sequence (P34998 24-415): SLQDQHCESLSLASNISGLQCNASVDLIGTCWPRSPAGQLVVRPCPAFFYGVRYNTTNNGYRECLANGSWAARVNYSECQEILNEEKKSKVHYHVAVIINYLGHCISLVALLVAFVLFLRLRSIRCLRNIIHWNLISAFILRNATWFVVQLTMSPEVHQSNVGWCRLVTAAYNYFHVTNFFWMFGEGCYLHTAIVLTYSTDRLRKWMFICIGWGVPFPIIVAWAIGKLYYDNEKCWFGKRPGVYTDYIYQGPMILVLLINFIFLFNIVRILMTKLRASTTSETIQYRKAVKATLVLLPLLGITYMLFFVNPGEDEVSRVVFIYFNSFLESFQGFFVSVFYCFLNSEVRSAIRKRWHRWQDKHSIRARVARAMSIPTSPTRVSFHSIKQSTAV
Experimental: <CRFR Binding Experiment>
The full-length CRFR1 gene was obtained by PCR using human brain cDNA library (QuickClone™ Clontech). […] The CRFR1 expression vector was introduced into HEK293 cell, and the resistant cells which proliferated in culture medium containing G418 (1 mg/ml) were cloned by the limiting dilution method. […] And the selected cells were used for the experiments.

| Structure (SMILES) | IC50 [1] [nM] | % of Positive Control (CYP3A4 inducibility) (CYP3A4; 0.03 μM) [%] | % of Positive Control (CYP3A4 inducibility) (CYP3A4; 0.1 μM) [%] | % of Positive Control (CYP3A4 inducibility) (CYP3A4; 0.3 μM) [%] | % of Positive Control (CYP3A4 inducibility) (CYP3A4; 1 μM) [%] | inducibility (CYP3A4), positive control defined as 100% (CYP3A4; 1 μM) [%] | % of Positive Control (CYP3A4 inducibility) (CYP3A4; 3 μM) [%] | % of Positive Control (CYP3A4 inducibility) (CYP3A4; 10 μM) [%] | IC50 (human CRFR1) [nM] |
| --- | --- | --- | --- | --- | --- | --- | --- | --- | --- |
| CCc1nn2c(-c3c(OC)cc(COC)cc3OC)cccc2c1N(CC1CCOCC1)CC1CC1 [Example 1, N-Cyclopropylmethyl-N-7-[2,6-dimethoxy-4-(methoxymethyl)phenyl]-2-ethylpyrazolo[1,5-a]pyridin-3-yl-N-tetrahydro-2H-4-pyranylmethylamine] | 4 | 6 | 7 | 12 | 20 | ≤ 40 | 36 | 65 |  |
| COCc1cc(OC)c(-c2cccc3c(N(CC4CCOCC4)CC4CC4)c(SC)nn23)c(OC)c1 [Example 59, N-Cyclopropylmethyl-N-[7-[2,6-dimethoxy-4-(methoxymethyl)phenyl]-2-(methylsulfanyl)pyrazolo[1,5-a]pyridin-3-yl]-N-tetrahydro-2H-4-pyranylmethylamine] | 3.5 | 2 | 3 | 11 | 25 | ≤ 40 | 49 | 59 |  |
| COCc1cc(OC)c(-c2cccc3c(N(CC4CC4)CC4CCOC4)c(SC)nn23)c(OC)c1 (stereo not drawn) [Example 60, N-Cyclopropylmethyl-N-[7-[2,6-dimethoxy-4-(methoxymethyl)phenyl]-2-(methylsulfanyl)pyrazolo[1,5-a]pyridin-3-yl]-N-tetrahydro-3-furanylmethylamine] | 3.5 |  |  |  |  |  |  |  | 30 |

More lines, in order of falling IC50 [1], values ahead:

| IC50 [1] [nM] | % of Positive Control (CYP3A4 inducibility) (CYP3A4; 0.03 μM) [%] | % of Positive Control (CYP3A4 inducibility) (CYP3A4; 0.1 μM) [%] | % of Positive Control (CYP3A4 inducibility) (CYP3A4; 0.3 μM) [%] | % of Positive Control (CYP3A4 inducibility) (CYP3A4; 1 μM) [%] | inducibility (CYP3A4), positive control defined as 100% (CYP3A4; 1 μM) [%] | % of Positive Control (CYP3A4 inducibility) (CYP3A4; 3 μM) [%] | % of Positive Control (CYP3A4 inducibility) (CYP3A4; 10 μM) [%] | IC50 (human CRFR1) [nM] | Structure (SMILES) |
| --- | --- | --- | --- | --- | --- | --- | --- | --- | --- |
| 50 |  |  |  |  |  |  |  |  | COCc1cc(OC)c(-c2cccc3c(N(CC4CCOCC4)CC4CC4)c(OC)nn23)c(OC)c1 [Example 47, N-Cyclopropylmethyl-N-7-[2,6-dimethoxy-4-(methoxymethyl)phenyl]-2-methoxypyrazolo[1,5-a]pyridin-3-yl-N-tetrahydro-2H-4-pyranylmethylamine] |
| 11 |  |  |  |  |  |  |  |  | CCCN(CC1CCOCC1)c1c(CC)nn2c(-c3c(OC)cc(COC)cc3OC)cccc12 [Example 13, N-7-[2,6-Dimethoxy-4-(methoxymethyl)phenyl]-2-ethylpyrazolo[1,5-a]pyridin-3-yl-N-propyl-N-tetrahydro-2H-4-pyranylmethylamine] |
| 6 |  |  |  |  |  |  |  | 50 | CCCN(CC1CCOCC1)c1c(CC)nn2c(-c3c(OC)cc(COCC)cc3OC)cccc12 [Example 23, N-7-[4-(Ethoxymethyl)-2,6-dimethoxyphenyl]-2-ethylpyrazolo[1,5-a]pyridin-3-yl-N-propyl-N-tetrahydro-2H-4-pyranylmethylamine] |
| 5.1 | 3 | 3 | 7 | 25 | ≤ 40 | 23 | 34 |  | CCOCc1cc(OC)c(-c2cccc3c(N(CC4CCOCC4)CC4CC4)c(CC)nn23)c(OC)c1 [Example 3, N-Cyclopropylmethyl-N-7-[4-(ethoxymethyl)-2,6-dimethoxyphenyl]-2-ethylpyrazolo[1,5-a]pyridin-3-yl-N-tetrahydro-2H-4-pyranylmethylamine] |
